One assay concerns the target SHP2 (Homo sapiens (Human), UniProt Q06124). Briefly: Detection of in vitro SHP2 protein activity by DiFMUP fluorescence. It is filed as biochemical. The following applies: read-out: Phosphatase activity SHP2 IC50; DiFMUP substrate, fluorescence Ex340/Em450, 60 min pre-incubation with polypeptide; read-out: Proteinase activity SHP2 IC50. The source says: The screening method of SHP2 protein activity was established by fluorescence detection. The basic principle is: SHP2 as phosphatase can catalyze the dephosphorization of DiFMUP to form DiFMU and free phosphate groups. The product DiFMU emits fluorescence under 340 nm excitation, and 450 nm emission is collected. If the binding of small molecule compounds with SHP2 can inhibit the activity of SHP2 enzyme, the 450 nm emission light detected will be weakened, and the activity of SHP2 enzyme will be finally reflected by the intensity of fluorescence value.
The specific operation was as follows: the 10 mM compound stock solution was diluted to 1 mM with DMSO, and then diluted 3 times with DMSO. 95 μL reaction buffer (60 mM HEPES), 75 mM NaCl, 75 mM KCl, 1 mM EDTA, 5 mM DTT, 1 μL gradient diluted compound, 2 μL SHP2 (concentration was 2 μg/μL) and 1 μL polypeptide (concentration was 50 mM) were added into each well of a 96 well flat clear bottom black plate (costar, 3603). The above test mixture was incubated at room temperature in dark for 60 minutes. Then 2 μL of 10 mM DiFMUP was added into each well, and was incubated at room temperature for 30 minutes. Fluorescence value was determined in the enzyme reader at Ex340/Em450. IC50 of the compounds was obtained by the data analysis software Prism.

Assay [1] has as its system Human non-small cell lung cancer NCI-H358. Briefly: Cell proliferation assay (CellTiter-Glu) in NCI-H358. It is filed as cell-based. Conditions: 5 days, NCI-H358 cells, cell viability by CellTiter-Glu, compound 0.3 nM-2 μM, medium and compound renewed after 3 days. The protocol: Cell proliferation inhibition screening method was established by CellTier-Glu® test reagent from Promega.
Human non-small cell lung cancer NCI-H358 was cultured by RPMI-1640 (Gibco®) medium with 10% fetal bovine serum (Gibco®) at 37° C., 95% air and 5% CO2, in 25 cm^2 or 75 cm^2 plastic culture bottle ((Nunc®) and passaged 2-3 times a week.
The cells were seeded on the 96 well cell culture plate (Nunc®) at the density of 2*10^3/well, 90 μL/well, and cultured at 37° C., 95% air and 5% CO2. The compound to be tested was added 24 hours later: the compound was diluted 3 times with DMSO from the concentration of 2 mM compound (dissolved in DMSO). […] 10 μL of the compound diluted by culture medium was added into the culture plate seeded with cells. The final concentration of DMSO in cell culture medium was 0.1%, and the final concentration of test compound was 0.3 nM-2 μM. The cells were incubated at 37° C. for 3 days. The culture medium was substituted with 90 μL/well fresh complete medium. According to the above diluting method of compounds, the compound to be tested was added.
After 5 days, cell viability was tested by CellTiter-Glu (Promega) kit, and finally, the semi-inhibitory concentration of compounds on cell proliferation, i.e. IC50 was calculated by Prism program.

A further assay addresses hERG channel (Homo sapiens (Human), UniProt Q12809). Briefly: hERG inhibitory activity, whole cell patch clamp in hERG-transfected HEK293 cells. The following applies: HEK293 cells transfected with hERG, tail current, tested at 30, 10, 2, 0.5, 0.1 μM. It is filed as cell-based. The protocol:
Patch Clamp Amplifier System (Multiclamp 700B Amplifier) (AXON), Olympus microscope (Olympus IX51/71/73), and MP285 micromanipulator were used.
HEK293 cell line for transfecting hERG was purchased from Invitrogen Company. The cells were grown in the culture medium with 85% DMEM, 10% fetal bovine serum, 0.1 mM NEAA, 25 mM HEPES buffer, 100 U/mL penicillin-streptomycin, 5 μg/mL blasticidin and 400 μg/mL G418 geneticin.
The cells were passaged three times a week and digested with TrypLE Express to maintain a fusion degree of about 40% to 80%. Before testing, the cells were seeded at the density of 5*10^5 cells/petri dish with a diameter of 6 cm and the cells were induced with 1 μg/ml doxycycline for 48 hours.
The test concentration of the compound solution was 30, 10, 2, 0.5, 0.1 μM after 1000-fold dilution and the final concentration of DMSO was in the range of 0.1%.
The manipulator was adjusted to move the electrode tip to the cell surface to form a high sealing. Liquid connection potential and fast capacitance were compensated, and the cell membrane was broken to form a whole cell recording mode. The membrane potential was set as −60 mV to ensure that the HERG channel was not opened. Cslow on the amplifier was used to eliminate the peak of capacity current. Holding voltage was set as […]. The leakage current test was performed at −80 mV for 500 ms. +30 mV was depolarized for 4.8 seconds, and HERG channel was activated. The voltage was restored to −50 mV for 5.2 seconds, and the tail current was observed. Peak current suppression=[1−(peak tail currentinhibitor−peak tail currentpositive control)/(peak tail currentblank−peak tail currentpositive control)]*100
The dose response curve of hERG current inhibition rate versus the concentration of the tested compound was plotted by using Graphpad Prism 8.0 software.
On the technique in general: The hERG channel carries a current that helps repolarise heart muscle cells.

Chain of hERG channel (Q12809 whole entry): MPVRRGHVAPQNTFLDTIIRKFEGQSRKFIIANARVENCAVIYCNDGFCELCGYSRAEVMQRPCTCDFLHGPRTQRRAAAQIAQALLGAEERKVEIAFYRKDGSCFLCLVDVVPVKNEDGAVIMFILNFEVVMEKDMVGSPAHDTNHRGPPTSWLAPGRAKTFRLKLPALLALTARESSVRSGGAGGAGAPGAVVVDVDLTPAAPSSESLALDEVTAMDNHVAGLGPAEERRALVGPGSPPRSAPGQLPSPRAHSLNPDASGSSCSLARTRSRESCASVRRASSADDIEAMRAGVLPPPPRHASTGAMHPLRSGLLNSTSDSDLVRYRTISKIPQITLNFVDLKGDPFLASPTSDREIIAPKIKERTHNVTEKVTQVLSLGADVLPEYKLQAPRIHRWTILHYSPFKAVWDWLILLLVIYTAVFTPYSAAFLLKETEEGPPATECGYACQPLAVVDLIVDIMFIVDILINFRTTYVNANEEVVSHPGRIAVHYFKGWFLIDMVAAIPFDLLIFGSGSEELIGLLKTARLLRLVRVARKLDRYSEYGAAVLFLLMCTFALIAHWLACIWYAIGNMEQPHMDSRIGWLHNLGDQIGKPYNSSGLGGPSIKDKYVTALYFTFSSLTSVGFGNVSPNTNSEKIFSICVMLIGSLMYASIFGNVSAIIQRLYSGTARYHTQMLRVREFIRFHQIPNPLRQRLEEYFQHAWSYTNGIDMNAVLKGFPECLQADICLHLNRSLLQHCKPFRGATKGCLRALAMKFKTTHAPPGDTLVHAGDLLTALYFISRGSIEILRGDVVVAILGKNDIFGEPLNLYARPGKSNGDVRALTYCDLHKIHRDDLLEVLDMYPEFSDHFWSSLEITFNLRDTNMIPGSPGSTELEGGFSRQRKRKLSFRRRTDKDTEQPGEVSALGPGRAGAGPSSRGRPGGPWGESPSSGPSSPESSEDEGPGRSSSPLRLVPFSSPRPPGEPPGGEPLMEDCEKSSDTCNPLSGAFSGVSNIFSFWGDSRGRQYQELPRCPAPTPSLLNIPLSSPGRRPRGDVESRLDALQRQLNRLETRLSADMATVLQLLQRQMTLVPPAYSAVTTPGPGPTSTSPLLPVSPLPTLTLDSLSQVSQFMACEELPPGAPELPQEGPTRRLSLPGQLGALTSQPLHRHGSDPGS
Chain of SHP2 (Q06124 whole entry, species assumed): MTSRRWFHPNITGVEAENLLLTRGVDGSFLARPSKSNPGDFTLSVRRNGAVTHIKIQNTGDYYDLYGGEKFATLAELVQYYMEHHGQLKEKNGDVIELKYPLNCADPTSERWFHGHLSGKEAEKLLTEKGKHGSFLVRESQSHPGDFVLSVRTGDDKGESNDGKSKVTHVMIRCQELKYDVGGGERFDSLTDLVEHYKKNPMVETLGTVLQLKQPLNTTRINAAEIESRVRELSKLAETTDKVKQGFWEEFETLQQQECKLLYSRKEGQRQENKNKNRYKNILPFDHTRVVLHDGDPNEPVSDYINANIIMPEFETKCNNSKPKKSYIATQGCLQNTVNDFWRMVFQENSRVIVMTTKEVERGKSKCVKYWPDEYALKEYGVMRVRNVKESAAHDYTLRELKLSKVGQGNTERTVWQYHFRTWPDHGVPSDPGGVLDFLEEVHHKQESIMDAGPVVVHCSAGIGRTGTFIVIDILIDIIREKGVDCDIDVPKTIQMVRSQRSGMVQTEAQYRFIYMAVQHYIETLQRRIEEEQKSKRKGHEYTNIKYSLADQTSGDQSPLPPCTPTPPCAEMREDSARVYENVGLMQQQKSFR

In general, IC50 refers to the concentration needed to halve the response being measured. Consider `Cc1nc(N2CCC3(CC2)Cc2ccccc2[C@H]3N)c(CO)nc1-c1cccc(Cl)c1Cl` [Compound 1, (S)-(3-(1-amino-1,3-dihydrospiro[indene-2,4′-piperidin]-1′-yl)-6-(2,3-dichlorophenyl)-5-methylpyrazin-2-yl)methanol], for which the results for the IC50 (at SHP2; in assay [1]; against hERG channel) were 9 nM, 88 nM and < 100 nM, respectively.

Consider `Cc1nc(N2CCC3(CC2)Cc2ccc(C#N)cc2[C@H]3N)c(CO)nc1-c1cccc(Cl)c1Cl` [Compound 2, (S)-1-amino-1′-(5-(2,3-dichlorophenyl)-3-(hydroxymethyl)-6-methylpyrazin-2-yl)-1,3-dihydrospiro[indene-2,4′-piperidine]-6-carbonitrile], for which the results for the IC50 (at SHP2; in assay [1]) were 35 nM and 84 nM, respectively.

As to `Cc1nc(N2CCC3(CC2)Cc2ncccc2[C@H]3N)c(CO)nc1-c1cccc(Cl)c1Cl` [Compound 13, (S)-(3-(5-amino-5,7-dihydrospiro[cyclopenta[b]pyridine-6,4′-piperidin]-1′-yl)-6-(2,3-dichlorophenyl)-5-methylpyrazin-2-yl)methanol], the figures for the IC50 (in assay [1]; against hERG channel) were 1.6 nM and < 100 nM, respectively.

As to `Cc1ccc2c(c1)[C@@H](N)C1(CCN(c3nc(C)c(-c4ccnc(Cl)c4Cl)nc3CO)CC1)C2` [Compound 21], the results for the IC50 (in assay [1]; at hERG channel) were 11 nM and 3030 nM, respectively.

Consider `Cc1nc(N2CCC3(CC2)Cc2ccccc2[C@H]3N)c(CO)nc1-c1cc(N)nc(Cl)c1Cl` [Compound 47], for which the IC50 in assay [1] came out at 30 nM; at hERG channel it was 4290 nM.

As for `Cc1cnc2c(c1)[C@@H](N)C1(CCN(c3nc(C)c(-c4ccnc(Cl)c4Cl)nc3CO)CC1)C2` [Compound 49], the figures for the IC50 (in assay [1]; on hERG channel) were 28 nM and 1800 nM, respectively.

As to `Cc1ccnc(-c2nc(CO)c(N3CCC4(CC3)Cc3ccccc3[C@H]4N)nc2C)c1Cl` [Compound 55], the IC50 in assay [1] was > 1000 nM.

As to `COc1ccc(-c2nc(CO)c(N3CCC4(CC3)Cc3ccccc3[C@H]4N)nc2C)c(Cl)n1` [Compound 56], the IC50 in assay [1] came to 182 nM.

With `Cc1nc(N2CCC3(CC2)Cc2ccccc2[C@H]3N)c(CO)nc1-c1ccc(=O)[nH]c1Cl` [Compound 57], in assay [1], the IC50 is > 1000 nM.

For the molecule `CNc1cc(Cl)c(-c2nc(CO)c(N3CCC4(CC3)Cc3ccccc3[C@H]4N)nc2C)cn1` [Compound 58], the IC50 in assay [1] was > 1000 nM.

Molecule `CNc1ccc(-c2nc(CO)c(N3CCC4(CC3)Cc3ccccc3[C@H]4N)nc2C)c(Cl)c1C(F)(F)F` [Compound 59] returned an IC50 in assay [1] of 115 nM.

In assay [1], `Cc1cnc2c(c1)[C@@H](N)C1(CCN(c3nc(C)c(-c4ccnc(C)c4Cl)nc3CO)CC1)C2` [Compound 60] registered an IC50 of 75 nM.

In turn, `Cc1cncc(-c2nc(CO)c(N3CCC4(CC3)Cc3ccccc3[C@H]4N)nc2C)c1Cl` [Compound 61] came in with an IC50 in assay [1] of 63 nM.

As for `Cc1nc(N2CCC3(CC2)Cc2ccccc2[C@H]3N)c(CO)nc1-c1ccnc(C(F)(F)F)c1Cl` [Compound 62], the half-inhibitory concentration (IC50) in assay [1] was found to be 15 nM; on hERG channel, 4230 nM.

For `Cc1ccc2c(c1)[C@@H](N)C1(CCN(c3nc(C)c(-c4cc(N)nc(Cl)c4Cl)nc3CO)CC1)C2` [Compound 63], in assay [1], half-maximal inhibition (IC50) required 40 nM.

For `Cc1cnc2c(c1)[C@@H](N)C1(CCN(c3nc(C)c(-c4cc(N)nc(Cl)c4Cl)nc3CO)CC1)C2` [Compound 64], the values for the IC50 (in assay [1]; against hERG channel) were 22 nM and 6130 nM, respectively.

Turning to `Cc1cnc2c(c1)[C@@H](N)C1(CCN(c3nc(C)c(-c4ccnc(Cl)c4Cl)nc3C(C)O)CC1)C2` (some centres unmarked) [Compound 68], in assay [1], the midpoint of inhibition, the IC50, lay at 530 nM.

Take `COc1ccc2c(c1)[C@@H](N)C1(CCN(c3nc(C)c(-c4ccnc(Cl)c4Cl)nc3CO)CC1)C2` [Compound 72]: the IC50 turned out to be 65.9 nM in assay [1] and 2590 nM on hERG channel.

Turning to `COc1nccc(-c2nc(CO)c(N3CCC4(CC3)Cc3ncc(C)cc3[C@H]4N)nc2C)c1Cl` [Compound 76], the 50% inhibitory concentration (IC50) in assay [1] was 25 nM; at hERG channel, 2110 nM.

As to `Cc1nc(N2CCC3(CC2)Cc2ccccc2[C@H]3N)c(CO)nc1-c1ccnc(C#N)c1Cl` [Compound 77], the IC50 in assay [1] is 33 nM; on hERG channel, 620 nM.

(Values after patent US12209074B2, “SHP2 phosphatase allosteric inhibitor” (BEIJING SHENOGEN PHARMA GROUP LTD., priority 2019, dated 2025).)
